Literature values, collected in patent US20100172993A1, “PARTICLES FOR DELIVERY OF ACTIVE INGREDIENTS, PROCESS OF MAKING AND COMPOSITIONS THEREOF” (priority 2006, published 2010).

Settings: topical insect repellent

SMILES: CCN(CC)C(=O)c1ccccc1 [NN Diethyl Benzamide]
- Absorption of the active ingredient in the blood plasma after dermal application: no absorption of the active ingredient in the blood plasma
